In patent US7923465B2, “Cannabinoid receptor ligands, pharmaceutical compositions containing them, and process for their preparation” (priority 2005, dated 2011):
Where two headings read alike, the source gives them in different places.

Legend:
hCB2 = hCB2 (Homo sapiens, UniProt P34972); assay: In vitro binding assay using hCB2-CHO membranes, [3H]-CP-55,940 displacement (Protocol IV); set-up: expressed in transfected cells; host or cells: CHO (hCB2-CHO, generated in-house); settings: for inhibition at 0.3 µM: 1 h, read-out: % Displacement Protocol IV
Procedure: IV. Protocol for In Vitro Assay Using hCB2-CHO Membranes:
In this assay, [^3H]-CP-55,940 was used as the radioligand to bind human CB2 receptor expressed on the membranes from CHO cells (hCB2-CHO cell line was generated in-house) which can be displaced by unlabeled ligands having affinity to the CB2 receptor.
The assay was performed according to the modified method of Ross et al., 1999 (Br. J. Pharmacol. 128, 735-743). The reaction was set up in a total volume of 200 μl in PEI (0.2%) precoated Millipore GFB filter plates. 1 mM stocks of test compounds were prepared in DMSO and tested at a final concentration of 300 nM. The non-specific binding was determined by 0.5 μM CP-55, 940. The total reaction mixture contained Tris-BSA buffer (50 mM Tris, 5 mM MgCl2, 1 mM EDTA, pH 7.4 with 0.1% BSA), unlabelled CP-55, 940 (0.5 μM) or test samples, [^3H]-CP-55, 940 (0.75 nM) and 25-50 μg of human CB2 receptor preparation. The assay mixture (with or without the test compound) was incubated at 30° C. for 1 hour. The reaction was stopped by rapid filtration under vacuum and the radioactivity on the filters was measured by liquid scintillation counting.
The percent (%) displacement by a test ligand was calculated by comparing the specific bound values.

[1] = hCB2-CHO membranes, [3H]-CP-55,940 displacement

Chain of hCB2 (P34972 whole entry): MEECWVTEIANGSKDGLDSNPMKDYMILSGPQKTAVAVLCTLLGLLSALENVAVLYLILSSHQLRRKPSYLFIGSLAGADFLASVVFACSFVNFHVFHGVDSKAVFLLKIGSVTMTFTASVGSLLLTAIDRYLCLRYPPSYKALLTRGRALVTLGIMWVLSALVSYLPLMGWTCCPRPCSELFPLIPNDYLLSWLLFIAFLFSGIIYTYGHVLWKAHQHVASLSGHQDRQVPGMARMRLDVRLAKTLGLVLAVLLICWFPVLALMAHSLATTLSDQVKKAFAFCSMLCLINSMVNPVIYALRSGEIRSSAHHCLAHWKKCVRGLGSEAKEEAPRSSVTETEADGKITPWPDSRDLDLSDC

| Compound | inhibition at 0.3 µM (hCB2; [1]) | other results |
| --- | --- | --- |
| O=C(NCc1c(F)cccc1F)c1nn(-c2ccc(Cl)cc2)c2c1C1CC3CC(C1)CC2C3 [Example 115, N(7)-(2,6-Difluorobenzyl)-5-(4-chlorophenyl)-5,6-diazatetracyclo[7.3.1.1^3,11.0^4,8]tetradeca-4(8),6-diene-7-carboxamide] | – | melting point: 166 to 167 °C |
| CC(NC(=O)c1nn(-c2ccc(Cl)cc2)c2c1C1CC3CC(C1)CC2C3)c1ccccc1Cl (stereo not drawn) [Example 138, N7-[1-(2-Chlorophenyl)ethyl]-5-(4-chlorophenyl)-5,6-diazatetracyclo[7.3.1.1^3,11.0^4,8]tetradeca-4(8),6-diene-7-carboxamide] | 68% | – |
| CC(NC(=O)c1nn(-c2ccc(F)cc2F)c2c1C1CC3CC(C1)CC2C3)c1ccccc1Cl (stereo not drawn) [Example 151, N(7)-[1-(2-Chlorophenyl)ethyl]-5-(2,4-difluorophenyl)-5,6-diazatetracyclo[7.3.1.1^3,11.0^4,8]tetradeca-4(8),6-diene-7-carboxamide] | 69.2% | – |
| O=C(NCc1ccccc1Cl)c1nn(-c2ccc(Cl)cn2)c2c1C1CC3CC(C1)CC2C3 [Example 185, N7-(2-Chlorobenzyl)-5-(5-chloro-2-pyridyl)-5,6-diazatetracyclo[7.3.1.1^3,11.0^4,8]tetradeca-4(8),6-diene-7-carboxamide] | 60.7% | – |
| CCCCCn1nc2c(c1C(=O)NC(C)(C)c1ccccc1)C1CC3CC(CC2C3)C1 [Example 190a, N(7)-(1-Methyl-1-phenylethyl)-6-pentyl-5,6-diazatetracyclo[7.3.1.1^3,11.0^4,8]tetradeca-4,7-diene-7-carboxamide] | – | inhibition at 0.3 µM (hCB2): 0% |
| O=C(NCc1c(F)cccc1F)c1nn(-c2ccc(Cl)cc2Cl)c2c1C1CCC2C1 (stereo not drawn) [Example 248, N(3)-(2,6-Difluorobenzyl)-1-(2,4-dichlorophenyl)-4,5,6,7-tetrahydro-1H-4,7-methano-indazole-3-carboxamide] | – | melting point: 130 to 133 °C |
| CN(NC(=O)c1nn(-c2ccc(Cl)cc2Cl)c2c1C1CCC2C1)c1ccccc1Cl (stereo not drawn) [Example 258, N(3)-[N-(2-Chlorophenyl)-N-methylamino]-1-(2,4-dichlorophenyl)-4,5,6,7-tetrahydro-1H-4,7-methano-indazole-3-carboxamide] | – | melting point: 121 to 124 °C |
| CN(NC(=O)c1nn(-c2ccc(Cl)cc2Cl)c2c1C1CCC2C1)c1ccc(Cl)cc1Cl (stereo not drawn) [Example 261, N(3)-[(2,4dichlorophenyl)-N-methylamino]-1-(2,4-dichlorophenyl)-4,5,6,7-tetrahydro-1H-4,7-methano-indazole-3-carboxamide] | – | melting point: 135 to 138 °C |
| O=C(NNc1ccccc1F)c1nn(-c2ccc(Br)cc2)c2c1C1CCC2C1 (stereo not drawn) [Example 278, N(3)-[(2-Fluorophenyl)amino]-1-(4-bromophenyl)-4,5,6,7-tetrahydro-1H-4,7-methano-indazole-3-carboxamide] | – | melting point: 123 °C |
| O=C(NCc1ccccc1Cl)c1nn(-c2ccc(F)cc2F)c2c1C1CCC2C1 (stereo not drawn) [Example 297, N5-(2-Chlorobenzyl)-3-(2,4-difluorophenyl)-3,4-diazatricyclo[5.2.1.0^2,6]deca-2(6),4-diene-5-carboxamide] | 70.3% | – |
| CN1CCN(NC(=O)c2nn(-c3ccc(F)cc3F)c3c2C2CCC3C2)CC1 (stereo not drawn) [Example 318, N(3)-(4-methylpiperazino)-1-(2,4-difluorophenyl)-4,5,6,7-tetrahydro-1H-4,7-methano-indazole-3-carboxamide] | 31% | – |
| CC(C)(C)NC(=O)c1nn(-c2ccc(Cl)cc2)c2c1C1CCC2C1 (stereo not drawn) [Example 321, N(3)-(tert-Butyl)-1-(4-chlorophenyl)-4,5,6,7-tetrahydro-1H-4,7-methano-indazole-3-carboxamide] | 92.9% | – |
| CC(C)(C)NC(=O)c1nn(-c2ccc(Br)cc2)c2c1C1CCC2C1 (stereo not drawn) [Example 324, N(3)-(tert-Butyl)-1-(4-bromophenyl)-4,5,6,7-tetrahydro-1H-4,7-methano-indazole-3-carboxamide] | – | inhibition at 0.3 µM (hCB2): 88.5% |
| CC(C)(C)NC(=O)c1n[nH]c2c1C1(c3ccc(Cl)c(Cl)c3)CCC2C1 (stereo not drawn) [Example 325, N(3)-(tert-Butyl)-4-(3,4-dichlorophenyl)-4,5,6,7-tetrahydro-1H-4,7-methano-indazole-3-carboxamide] | 99.6% | – |
| CC(C)(C)NC(=O)c1nn(-c2ccc(Cl)cc2Cl)c2c1C1CCC2C1 (stereo not drawn) [Example 327, N(3)-(tert-Butyl)-1-(2,4-dichlorophenyl)-4,5,6,7-tetrahydro-1H-4,7-methano-indazole-3-carboxamide] | 100% | – |
| O=C(Nc1ccc(O)cc1)c1nn(-c2ccc(F)cc2F)c2c1C1CCC2C1 (stereo not drawn) [Example 328, N(3)-(4-Hydroxyphenyl)-1-(2,4-difluorophenyl)-4,5,6,7-tetrahydro-1H-4,7-methano-indazole-3-carboxamide] | 64.4% | – |
| CCOc1cc(F)ccc1-n1nc(C(=O)NC(C)(C)C)c2c1C1CCC2C1 (stereo not drawn) [Example 329, N(3)-(tert-Butyl)-1-(2-ethoxy,4-fluorophenyl)-4,5,6,7-tetrahydro-1H-4,7-methano-indazole-3-carboxamide] | 88.5% | – |
| O=C(NCc1ccco1)c1nn(-c2ccc(F)cc2F)c2c1C1CCC2C1 (stereo not drawn) [Example 330, N(3)-(2-furylmethyl)-1-(2,4-difluorophenyl)-4,5,6,7-tetrahydro-1H-4,7-methano-indazole-3-carboxamide] | 64.9% | – |
| O=C(NCc1cccs1)c1nn(-c2ccc(F)cc2F)c2c1C1CCC2C1 (stereo not drawn) [Example 331, N(3)-(2-thiophenemethyl)-1-(2,4-difluorophenyl)-4,5,6,7-tetrahydro-1H-4,7-methano-indazole-3-carboxamide] | – | % Displacement Protocol IV (hCB2; [1]): 75.26% |
| O=C(N[C@H](CO)c1ccc(F)cc1)c1nn(-c2ccc(F)cc2F)c2c1C1CCC2C1 (stereo partly drawn) [Example 332, N(3)-[(1S)-2-Hydroxy-1-(4-fluorophenyl)ethyl]-1-(2,4-difluorophenyl)-4,5,6,7-tetrahydro-1H-4,7-methano-indazole-3-carboxamide] | 70.1% | – |
| COC(=O)[C@H](CC(C)C)NC(=O)c1nn(-c2ccc(F)cc2F)c2c1C1CCC2C1 (stereo partly drawn) [Example 333, Methyl-(2S)-2-[5-(2,4-difluorophenyl)-4,5-diazatricyclo[5.2.1.0.^2,6]deca-2(6),3-dien-3-ylcarboxamido]-4-methylpentanoate] | – | % Displacement Protocol IV (hCB2; [1]): 100.00% |
| O=C(NC12CC3CC(CC(C3)C1)C2)c1nn(-c2ccc(F)cc2F)c2c1C1CCC2C1 (stereo not drawn) [Example 334, N(3)-(Adamantan-1yl)-1-(2,4-difluorophenyl)-4,5,6,7-tetrahydro-1H-4,7-methano-indazole-3-carboxamide] | – | inhibition at 0.3 µM (hCB2): 100% |
| CC(C)(C)NC(=O)c1nn(Cc2ccc(F)cc2)c2c1C1CCC2C1 (stereo not drawn) [Example 335a, N(3)-(tert-butyl)-1-(4-fluorobenzyl)-4,5,6,7-tetrahydro-1H-4,7-methano-indazole-3-carboxamide] | – | inhibition at 0.3 µM (hCB2): 96.5% |
| CC(C)(C)NC(=O)C1C2=C(NN1Cc1ccc(F)cc1)C1CCC2C1 (stereo not drawn) [Example 335b, N(3)-(tert-butyl)-2-(4-fluorobenzyl)-4,5,6,7-tetrahydro-1H-4,7-methano-indazole-3-carboxamide] | 8.7% | – |
| Cc1ccc(CN2NC3=C(C4CCC3C4)C2C(=O)NC(C)(C)C)cc1 (stereo not drawn) [Example 336b, N(3)-(tert-butyl)-2-(4-methylbenzyl)-4,5,6,7-tetrahydro-1H-4,7-methano-indazole-3-carboxamide] | 26.5% | – |
| CC12CCC(c3c(C(=O)N[C@@H](CO)c4ccccc4)nn(-c4ccc(F)cc4F)c31)C2(C)C (stereo partly drawn) [Example 410] | – | % Displacement Protocol IV (hCB2; [1]): 15.5% |
| CC(C)(C)NC(=O)c1nn(-c2ccc(F)cc2F)c2c1[C@H]1CC[C@]2(C)C1(C)C [Example 411, (4S,7R)—N(3)-tert-Butyl-1-(2,4-difluorophenyl)-7,8,8-trimethyl-4,5,6,7-tetrahydro-1H-methano-indazole-3-carboxamide] | – | % Displacement Protocol IV (hCB2; [1]): 49.68% |
| CC12CCC(C1)C(C)(C)C2NC(=O)c1nn(-c2ccc(Cl)cc2Cl)c2c1C1CCC2c2ccccc21 (stereo not drawn) [Example 507, N12-(1,3,3-Trimethylbicyclo[2.2.1]hept-2-yl)-10-(2,4-dichlorophenyl)-10,11-diazatetracyclo[6.5.2.0^2,7.0^9,13]pentadeca-2(7),3,5,9(13),11-pentaene-12-carboxamide] | 91.7% | – |
| CC(C)(NC(=O)c1nn(-c2ccc(Cl)cc2Cl)c2c1C1CCC2c2ccccc21)c1ccccc1 (stereo not drawn) [Example 508, N12-(1-Methyl-1-phenylethyl)-10-(2,4-dichlorophenyl)-10,11-diazatetracyclo[6.5.2.0^2,7.0^9,13]pentadeca-2,4,6,9(13),11-pentaene-12-carboxamide] | 67.7% | – |
| CC(C)(C)NC(=O)c1nn(-c2ccc(F)cc2F)c2c1C1CCC2c2ccccc21 (stereo not drawn) [Example 702, N(12)-tert-Butyl-10-(2,4-difluorophenyl)-10,11-diazatetracyclo[6.5.2.0^2,7.0^9,13]tetradeca-2,4,6,9(13),11-pentaene-12-carboxamide] | – | % Displacement Protocol IV (hCB2; [1]): 33.00% |
